In data set [1] the test system is Klebsiella pneumoniae expressing VIM-1 (IHMA599644). The data set is classed as cell-based. As to conditions: with imipenem 1 μg/ml; 95% inhibition of bacterial growth. The gist of the method: (§1)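 Clinical strains were grown overnight at 35 °C on blood agar, adjusted to set OD600 in saline and diluted 1:100 into 1.1× CAMHB. Inhibitor was tested with and without imipenem at 1 μg/ml. After 22–24 h at 35 °C, absorbance was read to give synergistic concentration.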

In data set [2] the test system is Serratia marcescens expressing IMP-1 (CL5741). It is filed as cell-based. As to conditions: with imipenem 1 μg/ml; 95% inhibition of bacterial growth. The gist of the method: as §1
Data set [3] has as its system Pseudomonas aeruginosa PAO1 MB9798 (efflux+, IMP-1). As to conditions: imipenem at 2 μg/mL. The gist of the method: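 Isogenic PAO1 pair (efflux+ MB9798, efflux− MB9799, both IMP-1) tested by microbroth MIC with fixed imipenem and/or ceftazidime, usually at CLSI breakpoint, plus fixed class A/C inhibitor against AmpC. MBL inhibitor titrated; concentration restoring susceptibility recorded and fold difference between strains taken as efflux extent.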

The mark [4] stands for this setting: ratio MITC95 PA 9798/MITC95 PA 9799.

Where a name gives a salt, the structure may show the parent alone. Read-outs that look alike come from different tables or passages of the source.

In the case of `Nc1nc2c(-c3ccc(S(=O)(=O)NC[C@@H]4CCCN4)c(S(N)(=O)=O)c3-c3nn[nH]n3)cccc2[nH]1` [Example 262, (S)-4-(2-amino-1H-benzo[d]imidazol-4-yl)-N1-(pyrrolidin-2-ylmethyl)-3-(2H-tetrazol-5-yl)benzene-1,2-disulfonamide], in data set [1], the “Klebsiella pneumoniae (VIM-1) MITC95” value was found to be 0.7813 µM. Besides, in data set [2], the “Serratia marcescens (IMP-1) MITC95” value is 0.7813 µM. In data set [3] (setting [4]), the Efflux ratio is listed as 1.00.

On to `NCCNS(=O)(=O)c1ccc(-c2cccc3sc(CN)nc23)c(-c2nn[nH]n2)c1S(N)(=O)=O` [Example 345, N^1-(2-aminoethyl)-4-(2-(aminomethyl)benzo[d]thiazol-4-yl)-3-(2H-tetrazol-5-yl)benzene-1,2-disulfonamide], for which the “Klebsiella pneumoniae (VIM-1) MITC95” value in data set [1] was found to be 0.7813 µM. Further, the “Serratia marcescens (IMP-1) MITC95” value in data set [2] amounted to 0.7813 µM. Further, in data set [3] (setting [4]), the Efflux ratio worked out at 1.00.

Take `NCc1csc(Nc2cccc(-c3ccc(S(=O)(=O)N[C@@H]4CCNC4)c(S(N)(=O)=O)c3-c3nn[nH]n3)c2)n1` [Example 290, (R)-3′-((4-(aminomethyl)thiazol-2-yl)amino)-N4-(pyrrolidin-3-yl)-2-(2H-tetrazol-5-yl)-[1,1′-biphenyl]-3,4-disulfonamide]: in data set [1], the “Klebsiella pneumoniae (VIM-1) MITC95” value stood at 0.7813 µM. Moreover, the “Serratia marcescens (IMP-1) MITC95” value in data set [2] worked out at 0.7813 µM. Further, in data set [3] (setting [4]), the Efflux ratio is given as 2.00.

As for `NC[C@@]1(NS(=O)(=O)c2ccc(-c3ccc(N)nc3)c(-c3nn[nH]n3)c2S(N)(=O)=O)CCNC1` [Example 487, (S)-N1-(3-(aminomethyl)pyrrolidin-3-yl)-4-(6-aminopyridin-3-yl)-3-(2H-tetrazol-5-yl)benzene-1,2-disulfonamide dihydrochloride], the “Klebsiella pneumoniae (VIM-1) MITC95” value in data set [1] amounted to 1.563 µM. Also, in data set [2], the “Serratia marcescens (IMP-1) MITC95” value stood at 0.7813 µM. Further, in data set [3] (fold difference between efflux + (MB9798) and efflux − (MB9799) strains), the Efflux ratio is recorded as 1.00.

For `NCCNC(=O)c1cccc(-c2ccc(S(=O)(=O)NCCN)c(S(N)(=O)=O)c2-c2nn[nH]n2)c1` [Example 334, N-(2-aminoethyl)-4′-(N-(2-aminoethyl)sulfamoyl)-3′-sulfamoyl-2′-(2H-tetrazol-5-yl)-[1,1′-biphenyl]-3-carboxamide], the “Klebsiella pneumoniae (VIM-1) MITC95” value in data set [1] came to 0.7813 µM. For the same compound, the “Serratia marcescens (IMP-1) MITC95” value in data set [2] stood at 0.7813 µM. The Efflux ratio in data set [3] (setting [4]) is 2.00.

As for `Nc1nc2c(-c3ccc(S(=O)(=O)N[C@@H]4CNC[C@@H]4N)c(S(N)(=O)=O)c3-c3nn[nH]n3)cccc2[nH]1` [Example 240, 4-(2-amino-1H-benzo[d]imidazol-4-yl)-N^1-((3R,4S)-4-aminopyrrolidin-3-yl)-3-(2H-tetrazol-5-yl)benzene-1,2-disulfonamide], in data set [1], the “Klebsiella pneumoniae (VIM-1) MITC95” value is 1.563 µM. The “Serratia marcescens (IMP-1) MITC95” value in data set [2] is 0.7813 µM. The Efflux ratio in data set [3] (setting [4]) is given as 1.00.

Take `Nc1ccc(-c2ccc(S(=O)(=O)NC[C@H](N)CO)c(S(N)(=O)=O)c2-c2nn[nH]n2)cn1` [Example 297, (S)—N^1-(2-amino-3-hydroxypropyl)-4-(6-aminopyridin-3-yl)-3-(2H-tetrazol-5-yl) benzene-1,2-disulfonamide]: the “Klebsiella pneumoniae (VIM-1) MITC95” value in data set [1] was 1.563 µM. Also, the “Serratia marcescens (IMP-1) MITC95” value in data set [2] worked out at 0.7813 µM. In addition, the Efflux ratio in data set [3] (setting [4]) was 1.00.

With `N[C@@H]1CNC[C@@H]1NS(=O)(=O)c1ccc(-c2cnc3cc[nH]c3c2)c(-c2nn[nH]n2)c1S(N)(=O)=O` [Example 326, N1-((3S,4R)-4-aminopyrrolidin-3-yl)-4-(1H-pyrrolo[3,2-b]pyridin-6-yl)-3-(2H-tetrazol-5-yl)benzene-1,2-disulfonamide], in data set [1], the “Klebsiella pneumoniae (VIM-1) MITC95” value stood at 1.563 µM. The “Serratia marcescens (IMP-1) MITC95” value in data set [2] amounted to 1.563 µM. Moreover, the Efflux ratio in data set [3] (setting [4]) was found to be 1.00.

As to `CN(C1CNC1)S(=O)(=O)c1ccc(-c2cccc3[nH]c(N)nc23)c(-c2nn[nH]n2)c1S(N)(=O)=O` [Example 255, 4-(2-amino-1H-benzo[d]imidazol-4-yl)-N1-(azetidin-3-yl)-N1-methyl-3-(2H-tetrazol-5-yl)benzene-1,2-disulfonamide], the “Klebsiella pneumoniae (VIM-1) MITC95” value in data set [1] was found to be 0.7813 µM. In addition, the “Serratia marcescens (IMP-1) MITC95” value in data set [2] was 0.7813 µM. Moreover, in data set [3] (setting [4]), the Efflux ratio is on record as 2.00.

For `CC1(NS(=O)(=O)c2ccc(-c3cccc4[nH]c(N)nc34)c(-c3nn[nH]n3)c2S(N)(=O)=O)CNC1` [Example 257, 4-(2-amino-1H-benzo[d]imidazol-4-yl)-N1-(3-methylazetidin-3-yl)-3-(2H-tetrazol-5-yl)benzene-1,2-disulfonamide], in data set [1], the “Klebsiella pneumoniae (VIM-1) MITC95” value worked out at 0.7813 µM. Besides, the “Serratia marcescens (IMP-1) MITC95” value in data set [2] came to 0.7813 µM. The Efflux ratio in data set [3] (setting [4]) is 1.00.

With `Nc1nc2c(-c3ccc(S(=O)(=O)NC[C@H]4CCCN4)c(S(N)(=O)=O)c3-c3nn[nH]n3)cccc2[nH]1` [Example 261, (R)-4-(2-amino-1H-benzo[d]imidazol-4-yl)-N1-(pyrrolidin-2-ylmethyl)-3-(2H-tetrazol-5-yl) benzene-1,2-disulfonamide], the “Klebsiella pneumoniae (VIM-1) MITC95” value in data set [1] was found to be 0.7813 µM. Besides, the “Serratia marcescens (IMP-1) MITC95” value in data set [2] turned out to be 0.7813 µM. Besides, the Efflux ratio in data set [3] (setting [4]) is listed as 1.00.

As to `NCC(CN)NS(=O)(=O)c1ccc(-c2cccc3ccc(N)nc23)c(-c2nn[nH]n2)c1S(N)(=O)=O` [Example 430, 4-(2-aminoquinolin-8-yl)-N1-(1,3-diaminopropan-2-yl)-3-(2H-tetrazol-5-yl)benzene-1,2-disulfonamide], in data set [1], the “Klebsiella pneumoniae (VIM-1) MITC95” value is 1.563 µM. Moreover, in data set [2], the “Serratia marcescens (IMP-1) MITC95” value was determined as 1.563 µM.

With `C[C@@H](CN)NS(=O)(=O)c1ccc(-c2ccc(N)nc2)c(-c2nn[nH]n2)c1S(N)(=O)=O` [Example 394, (S)-N^1-(1-aminopropan-2-yl)-4-(6-aminopyridin-3-yl)-3-(2H-tetrazol-5-yl)benzene-1,2-disulfonamide], the “Klebsiella pneumoniae (VIM-1) MITC95” value in data set [1] is 3.125 µM. In data set [2], the “Serratia marcescens (IMP-1) MITC95” value stood at 1.563 µM.

In the case of `NC[C@H](CO)NS(=O)(=O)c1ccc(-c2cccc3[nH]nnc23)c(-c2nn[nH]n2)c1S(N)(=O)=O` [Example 407, (R)-N^1-(1-amino-3-hydroxypropan-2-yl)-4-(1H-benzo[d][1,2,3]triazol-4-yl)-3-(2H-tetrazol-5-yl)benzene-1,2-disulfonamide], in data set [1], the “Klebsiella pneumoniae (VIM-1) MITC95” value was 3.125 µM. The “Serratia marcescens (IMP-1) MITC95” value in data set [2] was found to be 1.563 µM.

On to `NCCNS(=O)(=O)c1ccc(-c2cccc(-c3c[nH]c(N)n3)c2)c(-c2nn[nH]n2)c1S(N)(=O)=O` [Example 353, 3′-(2-amino-1H-imidazol-4-yl)-N4-(2-aminoethyl)-2-(2H-tetrazol-5-yl)-[1,1′-biphenyl]-3,4-disulfonamide], for which, in data set [1], the “Klebsiella pneumoniae (VIM-1) MITC95” value amounted to 1.563 µM. Besides, the “Serratia marcescens (IMP-1) MITC95” value in data set [2] was 0.7813 µM. Further, the Efflux ratio in data set [3] (setting [4]) was determined as 2.00.

`NC[C@@H](CO)NS(=O)(=O)c1ccc(-c2ccnc(N)c2)c(-c2nn[nH]n2)c1S(N)(=O)=O` [Example 380, (S)—N1-(1-amino-3-hydroxypropan-2-yl)-4-(2-aminopyridin-4-yl)-3-(2H-tetrazol-5-yl)benzene-1,2-disulfonamide]: the “Klebsiella pneumoniae (VIM-1) MITC95” value in data set [1] was determined as 1.563 µM. Also, in data set [2], the “Serratia marcescens (IMP-1) MITC95” value turned out to be 0.7813 µM. Besides, in data set [3] (setting [4]), the Efflux ratio is 1.00.

As for `Cc1cc(-c2ccc(S(=O)(=O)NC[C@H](O)CN)c(S(N)(=O)=O)c2-c2nn[nH]n2)cnc1N` [Example 477, (R)—N1-(3-amino-2-hydroxypropyl)-4-(6-amino-5-methylpyridin-3-yl)-3-(2H-tetrazol-5-yl)benzene-1,2-disulfonamide], in data set [1], the “Klebsiella pneumoniae (VIM-1) MITC95” value was 1.563 µM. Besides, the “Serratia marcescens (IMP-1) MITC95” value in data set [2] was determined as 0.7813 µM.

Regarding `NC[C@H](N)CNS(=O)(=O)c1ccc(-c2cnc3cc[nH]c3c2)c(-c2nn[nH]n2)c1S(N)(=O)=O` [Example 373, (S)-N1-(2,3-diaminopropyl)-4-(1H-pyrrolo[3,2-b]pyridin-6-yl)-3-(2H-tetrazol-5-yl)benzene-1,2-disulfonamide], in data set [1], the “Klebsiella pneumoniae (VIM-1) MITC95” value amounted to 3.125 µM. For the same compound, the “Serratia marcescens (IMP-1) MITC95” value in data set [2] came out at 1.563 µM. For the same compound, in data set [3] (setting [4]), the Efflux ratio is 1.00.

For `NCc1nc2c(-c3ccc(S(=O)(=O)N[C@@H]4CCNC4)c(S(N)(=O)=O)c3-c3nn[nH]n3)cccc2s1` [Example 276, (R)-4-(2-(aminomethyl)benzo[d]thiazol-4-yl)-N1-(pyrrolidin-3-yl)-3-(2H-tetrazol-5-yl)benzene-1,2-disulfonamide], the “Klebsiella pneumoniae (VIM-1) MITC95” value in data set [1] worked out at 0.7813 µM. Besides, the “Serratia marcescens (IMP-1) MITC95” value in data set [2] was 0.7813 µM. Further, the Efflux ratio in data set [3] (setting [4]) stood at 1.00.

On to `C[C@H](N)c1nc2c(-c3ccc(S(=O)(=O)N[C@@H]4CCNC4)c(S(N)(=O)=O)c3-c3nn[nH]n3)cccc2[nH]1` [Example 272, 4-(2-((S)-1-aminoethyl)-1H-benzo[d]imidazol-4-yl)-N1-((R)-pyrrolidin-3-yl)-3-(2H-tetrazol-5-yl)benzene-1,2-disulfonamide], for which the “Klebsiella pneumoniae (VIM-1) MITC95” value in data set [1] turned out to be 1.563 µM. Further, in data set [2], the “Serratia marcescens (IMP-1) MITC95” value was found to be 1.563 µM. In addition, the Efflux ratio in data set [3] (setting [4]) is on record as 2.00.

As to `C[C@H](CN)NS(=O)(=O)c1ccc(-c2ccnc(N)c2)c(-c2nn[nH]n2)c1S(N)(=O)=O` [Example 317, (R)—N1-(1-aminopropan-2-yl)-4-(2-aminopyridin-4-yl)-3-(2H-tetrazol-5-yl) benzene-1,2-disulfonamide], the “Klebsiella pneumoniae (VIM-1) MITC95” value in data set [1] is 3.125 µM. Further, the “Serratia marcescens (IMP-1) MITC95” value in data set [2] is 1.563 µM. The Efflux ratio in data set [3] (setting [4]) turned out to be 0.50.
